Ten compounds from ChEMBL document CHEMBL5126514, “Molecular design of dual inhibitors of PI3K and potential molecular target of cancer for its treatment: A review” (Eur J Med Chem, 2022) can be followed below.

The term IC50 denotes the midpoint of a concentration-inhibition curve. By inhibition is commonly meant the change of the read-out against control, counted positive when it falls.

SMILES strings stand for the structures.

The target of experiment [1] is T1, Phosphatidylinositol 4,5-bisphosphate 3-kinase catalytic subunit delta isoform (Homo sapiens, UniProt O00329).
T1 sequence (O00329 whole entry): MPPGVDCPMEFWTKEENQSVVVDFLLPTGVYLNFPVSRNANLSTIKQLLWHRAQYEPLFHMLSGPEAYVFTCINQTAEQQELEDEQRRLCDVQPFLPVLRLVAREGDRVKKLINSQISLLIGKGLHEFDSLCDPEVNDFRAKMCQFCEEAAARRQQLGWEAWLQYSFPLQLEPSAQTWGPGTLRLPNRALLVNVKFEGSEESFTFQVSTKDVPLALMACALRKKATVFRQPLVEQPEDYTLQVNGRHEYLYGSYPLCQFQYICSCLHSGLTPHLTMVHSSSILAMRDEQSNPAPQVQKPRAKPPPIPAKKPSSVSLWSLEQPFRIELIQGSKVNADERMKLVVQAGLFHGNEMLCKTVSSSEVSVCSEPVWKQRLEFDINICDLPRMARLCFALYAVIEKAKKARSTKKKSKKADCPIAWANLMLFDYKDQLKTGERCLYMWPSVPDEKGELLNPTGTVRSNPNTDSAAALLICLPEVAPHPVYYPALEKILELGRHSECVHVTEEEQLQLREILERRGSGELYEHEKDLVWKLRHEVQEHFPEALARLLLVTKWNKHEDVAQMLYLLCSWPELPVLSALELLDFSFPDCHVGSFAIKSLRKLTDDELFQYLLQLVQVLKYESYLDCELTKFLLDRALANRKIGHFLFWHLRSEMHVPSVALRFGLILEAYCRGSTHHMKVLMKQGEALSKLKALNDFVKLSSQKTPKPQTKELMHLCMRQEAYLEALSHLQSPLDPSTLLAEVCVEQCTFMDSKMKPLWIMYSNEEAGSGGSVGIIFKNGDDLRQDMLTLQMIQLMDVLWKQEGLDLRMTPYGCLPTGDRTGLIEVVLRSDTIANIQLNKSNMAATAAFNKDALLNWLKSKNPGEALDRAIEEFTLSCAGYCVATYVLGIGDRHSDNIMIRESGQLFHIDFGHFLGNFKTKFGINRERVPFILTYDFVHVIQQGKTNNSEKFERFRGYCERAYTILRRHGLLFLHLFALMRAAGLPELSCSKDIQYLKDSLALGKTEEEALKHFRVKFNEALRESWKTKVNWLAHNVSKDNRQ
The experiment is described as follows: Inhibition of PI3Kdelta (unknown origin) expressed in baculovirus expression system using L-alpha-phosphatidylinositol as substrate by luminescence assay.

A further experiment relates to SCC-4. As to the kind of experiment: Anticancer activity against human SCC-4 cells assessed as growth inhibition. The experiment is classed as functional, cell-based.
A short description of experiment [2]: Anticancer activity against human TU183 cells assessed as growth inhibition. The experiment is classed as functional, cell-based.
A further experiment has as its system KB. The experiment is described as follows: Anticancer activity against human KB cells assessed as growth inhibition. The experiment is classed as functional, cell-based.
For experiment [3], the target named is T2, Phosphatidylinositol 4,5-bisphosphate 3-kinase catalytic subunit alpha isoform (Homo sapiens, UniProt P42336). The experiment is described as follows: Inhibition of PI3Kalpha (unknown origin).
T2 sequence (P42336 whole entry, canonical isoform): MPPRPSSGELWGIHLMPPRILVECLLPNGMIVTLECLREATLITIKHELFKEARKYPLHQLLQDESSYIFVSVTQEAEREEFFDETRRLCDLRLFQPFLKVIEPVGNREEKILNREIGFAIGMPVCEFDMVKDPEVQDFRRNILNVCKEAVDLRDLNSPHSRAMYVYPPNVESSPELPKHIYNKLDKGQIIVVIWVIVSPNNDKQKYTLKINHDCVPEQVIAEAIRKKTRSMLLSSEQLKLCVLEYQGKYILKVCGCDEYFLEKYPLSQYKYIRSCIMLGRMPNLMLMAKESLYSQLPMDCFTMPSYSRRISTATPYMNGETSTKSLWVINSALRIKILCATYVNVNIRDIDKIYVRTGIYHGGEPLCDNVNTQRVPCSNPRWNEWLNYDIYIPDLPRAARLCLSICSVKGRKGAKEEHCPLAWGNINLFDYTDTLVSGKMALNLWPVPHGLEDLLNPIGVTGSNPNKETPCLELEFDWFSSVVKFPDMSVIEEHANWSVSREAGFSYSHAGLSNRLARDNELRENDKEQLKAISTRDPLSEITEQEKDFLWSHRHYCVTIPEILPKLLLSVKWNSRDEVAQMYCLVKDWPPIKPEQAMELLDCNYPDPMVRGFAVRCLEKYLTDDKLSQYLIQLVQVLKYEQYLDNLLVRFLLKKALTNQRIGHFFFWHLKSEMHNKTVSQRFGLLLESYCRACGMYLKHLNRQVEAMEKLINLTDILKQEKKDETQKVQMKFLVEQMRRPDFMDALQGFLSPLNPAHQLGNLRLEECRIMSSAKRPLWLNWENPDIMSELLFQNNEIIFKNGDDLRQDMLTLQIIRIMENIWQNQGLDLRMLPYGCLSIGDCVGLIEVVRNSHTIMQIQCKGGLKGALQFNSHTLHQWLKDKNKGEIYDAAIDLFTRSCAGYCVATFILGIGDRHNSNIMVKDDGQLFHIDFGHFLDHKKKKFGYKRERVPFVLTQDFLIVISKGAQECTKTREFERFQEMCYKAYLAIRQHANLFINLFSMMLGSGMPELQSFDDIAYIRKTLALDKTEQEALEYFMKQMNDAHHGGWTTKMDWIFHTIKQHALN
In experiment [4] the target is T3, Mitogen-activated protein kinase; ERK1/ERK2 (Homo sapiens) (UniProt P27361+P28482). As to the kind of experiment: Inhibition of Erk1/2 phosphorylation in human A549 cells. It counts as cell-based. Conditions: concentration not given here.
T3 sequence (P27361 whole entry, looked up): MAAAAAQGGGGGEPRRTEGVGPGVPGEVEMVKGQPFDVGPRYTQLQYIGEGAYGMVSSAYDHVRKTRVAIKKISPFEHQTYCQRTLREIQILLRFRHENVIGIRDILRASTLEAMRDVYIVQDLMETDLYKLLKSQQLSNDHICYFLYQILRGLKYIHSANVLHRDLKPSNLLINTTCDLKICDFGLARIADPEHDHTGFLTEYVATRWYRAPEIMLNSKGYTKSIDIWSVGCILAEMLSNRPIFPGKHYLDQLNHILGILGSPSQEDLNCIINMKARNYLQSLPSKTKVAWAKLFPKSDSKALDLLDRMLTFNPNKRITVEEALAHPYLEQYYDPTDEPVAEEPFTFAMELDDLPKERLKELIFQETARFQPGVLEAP
T3 sequence (P28482 whole entry, looked up): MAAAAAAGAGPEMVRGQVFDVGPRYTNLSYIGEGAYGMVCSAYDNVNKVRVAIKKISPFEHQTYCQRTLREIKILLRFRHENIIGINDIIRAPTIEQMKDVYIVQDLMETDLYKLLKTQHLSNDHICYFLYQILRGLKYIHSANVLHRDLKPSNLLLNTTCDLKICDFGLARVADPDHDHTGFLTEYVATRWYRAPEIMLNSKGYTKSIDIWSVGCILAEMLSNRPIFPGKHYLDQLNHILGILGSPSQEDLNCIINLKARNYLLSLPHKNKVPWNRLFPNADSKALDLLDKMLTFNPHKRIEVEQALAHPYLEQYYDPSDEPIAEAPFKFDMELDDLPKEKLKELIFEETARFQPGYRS
The target in experiment [5] is T3, Mitogen-activated protein kinase; ERK1/ERK2 (Homo sapiens). As to the kind of experiment: Inhibition of Erk1/2 phosphorylation in human PANC-1 cells at 5 uM relative to control. The experiment is classed as cell-based.
The subject of a further experiment is A549. As to the kind of experiment: Anticancer activity against human A549 cells assessed as cell killing activity at 10 uM relative to control. It counts as functional.
The test system of the next experiment is PANC-1. The experiment is described as follows: Anticancer activity against human PANC-1 cells assessed as cell killing activity at 25 uM relative to control. The experiment is classed as functional.
For experiment [6], the target named is Phosphatidylinositol 4,5-bisphosphate 3-kinase catalytic subunit gamma isoform (Homo sapiens, UniProt P48736). The experiment is described as follows: Inhibition of PI3Kgamma (unknown origin) expressed in baculovirus expression system using L-alpha-phosphatidylinositol as substrate by luminescence assay.
Phosphatidylinositol 4,5-bisphosphate 3-kinase catalytic subunit gamma isoform, sequence (P48736 whole entry, canonical isoform): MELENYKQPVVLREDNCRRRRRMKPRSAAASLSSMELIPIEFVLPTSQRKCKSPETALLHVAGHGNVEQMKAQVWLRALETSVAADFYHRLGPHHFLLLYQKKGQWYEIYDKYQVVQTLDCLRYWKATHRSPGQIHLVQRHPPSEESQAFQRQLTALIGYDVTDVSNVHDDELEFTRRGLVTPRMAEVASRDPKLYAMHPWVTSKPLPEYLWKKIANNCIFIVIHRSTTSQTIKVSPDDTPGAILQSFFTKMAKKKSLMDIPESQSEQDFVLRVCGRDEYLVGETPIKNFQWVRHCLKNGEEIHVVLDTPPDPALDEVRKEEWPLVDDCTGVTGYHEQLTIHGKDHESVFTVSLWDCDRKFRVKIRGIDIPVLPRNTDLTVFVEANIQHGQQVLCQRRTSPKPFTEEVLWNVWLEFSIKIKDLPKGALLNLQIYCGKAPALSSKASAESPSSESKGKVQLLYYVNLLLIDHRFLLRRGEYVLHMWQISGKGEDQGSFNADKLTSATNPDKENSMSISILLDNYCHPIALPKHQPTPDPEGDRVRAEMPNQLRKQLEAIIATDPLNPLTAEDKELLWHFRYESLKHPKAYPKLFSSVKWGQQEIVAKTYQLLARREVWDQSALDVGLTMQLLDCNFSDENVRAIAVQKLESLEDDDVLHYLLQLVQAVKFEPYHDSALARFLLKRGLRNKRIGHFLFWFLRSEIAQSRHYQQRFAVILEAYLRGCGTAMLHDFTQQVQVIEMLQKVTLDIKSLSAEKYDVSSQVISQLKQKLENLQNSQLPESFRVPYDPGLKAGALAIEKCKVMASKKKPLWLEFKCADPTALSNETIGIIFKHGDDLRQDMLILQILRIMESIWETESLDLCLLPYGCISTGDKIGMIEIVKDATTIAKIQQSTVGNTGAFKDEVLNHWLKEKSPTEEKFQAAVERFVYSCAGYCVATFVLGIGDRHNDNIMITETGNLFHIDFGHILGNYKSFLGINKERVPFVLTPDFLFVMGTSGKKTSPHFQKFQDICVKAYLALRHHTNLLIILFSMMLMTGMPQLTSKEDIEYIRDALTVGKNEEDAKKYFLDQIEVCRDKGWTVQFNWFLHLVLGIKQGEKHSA
In experiment [7] the target is T2, Phosphatidylinositol 4,5-bisphosphate 3-kinase catalytic subunit alpha isoform. The experiment is described as follows: Inhibition of full-length PI3Kalpha (unknown origin) expressed in baculovirus infected Sf9 cells by ADP-Glo luminescent kinase assay.
In experiment [8] the target is Phosphatidylinositol 4,5-bisphosphate 3-kinase catalytic subunit beta isoform (Homo sapiens, UniProt P42338). As to the kind of experiment: Inhibition of full-length PI3Kbeta (unknown origin) expressed in baculovirus infected Sf9 cells by ADP-Glo luminescent kinase assay.
Phosphatidylinositol 4,5-bisphosphate 3-kinase catalytic subunit beta isoform, sequence (P42338 whole entry, canonical isoform): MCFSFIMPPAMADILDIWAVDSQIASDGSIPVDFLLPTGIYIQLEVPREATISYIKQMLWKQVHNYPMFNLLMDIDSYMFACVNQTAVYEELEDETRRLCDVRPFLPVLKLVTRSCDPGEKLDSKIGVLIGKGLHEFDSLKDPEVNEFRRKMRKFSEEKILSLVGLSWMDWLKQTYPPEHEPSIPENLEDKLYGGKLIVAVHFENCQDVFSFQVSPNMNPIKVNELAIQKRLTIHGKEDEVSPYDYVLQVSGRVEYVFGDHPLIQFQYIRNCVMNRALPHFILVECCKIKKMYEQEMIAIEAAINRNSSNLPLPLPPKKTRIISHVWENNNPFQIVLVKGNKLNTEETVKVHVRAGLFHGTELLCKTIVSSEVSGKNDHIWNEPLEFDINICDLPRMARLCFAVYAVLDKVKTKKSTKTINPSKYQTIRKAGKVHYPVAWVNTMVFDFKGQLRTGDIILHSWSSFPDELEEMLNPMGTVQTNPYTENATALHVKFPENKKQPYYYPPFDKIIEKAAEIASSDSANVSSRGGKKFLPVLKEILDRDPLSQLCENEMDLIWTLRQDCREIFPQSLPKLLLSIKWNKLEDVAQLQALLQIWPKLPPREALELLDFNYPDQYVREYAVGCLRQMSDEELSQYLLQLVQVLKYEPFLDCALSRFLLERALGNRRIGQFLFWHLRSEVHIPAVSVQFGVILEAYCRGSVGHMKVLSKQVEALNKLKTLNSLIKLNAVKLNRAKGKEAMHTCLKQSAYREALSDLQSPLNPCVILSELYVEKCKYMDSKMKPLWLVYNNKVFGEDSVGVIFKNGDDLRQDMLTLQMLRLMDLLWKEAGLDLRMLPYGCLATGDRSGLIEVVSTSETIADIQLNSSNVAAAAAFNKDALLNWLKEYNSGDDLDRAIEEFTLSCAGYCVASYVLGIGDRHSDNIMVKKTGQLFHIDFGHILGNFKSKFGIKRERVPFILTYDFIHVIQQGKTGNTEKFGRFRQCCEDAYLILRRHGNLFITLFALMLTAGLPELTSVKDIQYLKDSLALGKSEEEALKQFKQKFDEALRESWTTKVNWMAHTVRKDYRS
Experiment [9] has as its target T1, Phosphatidylinositol 4,5-bisphosphate 3-kinase catalytic subunit delta isoform. The experiment is described as follows: Inhibition of full-length PI3Kdelta (unknown origin) expressed in baculovirus infected Sf9 cells by ADP-Glo luminescent kinase assay. (In general: In ADP-Glo the light output rises with the ADP produced.)
Experiment [10] addresses T4, Polyamine deacetylase HDAC10 (Homo sapiens, UniProt Q969S8).
T4 sequence (Q969S8 whole entry): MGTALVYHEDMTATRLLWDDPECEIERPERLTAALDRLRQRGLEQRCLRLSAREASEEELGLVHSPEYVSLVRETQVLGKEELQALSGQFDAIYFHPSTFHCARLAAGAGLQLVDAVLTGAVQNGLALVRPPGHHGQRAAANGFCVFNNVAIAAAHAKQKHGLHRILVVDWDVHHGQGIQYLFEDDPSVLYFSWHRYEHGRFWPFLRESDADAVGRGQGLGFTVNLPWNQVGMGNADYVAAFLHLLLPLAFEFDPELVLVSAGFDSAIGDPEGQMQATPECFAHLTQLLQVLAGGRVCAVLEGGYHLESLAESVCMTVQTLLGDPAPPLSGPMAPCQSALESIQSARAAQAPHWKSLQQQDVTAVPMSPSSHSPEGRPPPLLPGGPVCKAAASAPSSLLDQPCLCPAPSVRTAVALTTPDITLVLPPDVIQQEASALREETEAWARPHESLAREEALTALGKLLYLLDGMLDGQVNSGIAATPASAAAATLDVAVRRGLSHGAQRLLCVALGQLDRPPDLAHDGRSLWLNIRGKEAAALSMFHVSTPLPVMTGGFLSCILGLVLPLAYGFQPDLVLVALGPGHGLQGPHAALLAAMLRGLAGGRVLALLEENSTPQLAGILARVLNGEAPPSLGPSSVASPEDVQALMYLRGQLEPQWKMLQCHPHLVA
The experiment is described as follows: Inhibition of full-length HDAC10 (unknown origin) by Color-de-Lys assay.

The target in experiment [11] is T2, Phosphatidylinositol 4,5-bisphosphate 3-kinase catalytic subunit alpha isoform. The experiment is described as follows: Inhibition of PI3Kalpha (unknown origin) expressed in baculovirus expression system using L-alpha-phosphatidylinositol as substrate by luminescence assay.
A further experiment addresses Histone deacetylase 1 (Homo sapiens, UniProt Q13547). The experiment is described as follows: Inhibition of full-length HDAC1 (unknown origin) by Color-de-Lys assay.
For experiment [12], the target named is T5, Protein deacetylase HDAC6 (Homo sapiens, UniProt Q9UBN7).
T5 sequence (Q9UBN7 whole entry): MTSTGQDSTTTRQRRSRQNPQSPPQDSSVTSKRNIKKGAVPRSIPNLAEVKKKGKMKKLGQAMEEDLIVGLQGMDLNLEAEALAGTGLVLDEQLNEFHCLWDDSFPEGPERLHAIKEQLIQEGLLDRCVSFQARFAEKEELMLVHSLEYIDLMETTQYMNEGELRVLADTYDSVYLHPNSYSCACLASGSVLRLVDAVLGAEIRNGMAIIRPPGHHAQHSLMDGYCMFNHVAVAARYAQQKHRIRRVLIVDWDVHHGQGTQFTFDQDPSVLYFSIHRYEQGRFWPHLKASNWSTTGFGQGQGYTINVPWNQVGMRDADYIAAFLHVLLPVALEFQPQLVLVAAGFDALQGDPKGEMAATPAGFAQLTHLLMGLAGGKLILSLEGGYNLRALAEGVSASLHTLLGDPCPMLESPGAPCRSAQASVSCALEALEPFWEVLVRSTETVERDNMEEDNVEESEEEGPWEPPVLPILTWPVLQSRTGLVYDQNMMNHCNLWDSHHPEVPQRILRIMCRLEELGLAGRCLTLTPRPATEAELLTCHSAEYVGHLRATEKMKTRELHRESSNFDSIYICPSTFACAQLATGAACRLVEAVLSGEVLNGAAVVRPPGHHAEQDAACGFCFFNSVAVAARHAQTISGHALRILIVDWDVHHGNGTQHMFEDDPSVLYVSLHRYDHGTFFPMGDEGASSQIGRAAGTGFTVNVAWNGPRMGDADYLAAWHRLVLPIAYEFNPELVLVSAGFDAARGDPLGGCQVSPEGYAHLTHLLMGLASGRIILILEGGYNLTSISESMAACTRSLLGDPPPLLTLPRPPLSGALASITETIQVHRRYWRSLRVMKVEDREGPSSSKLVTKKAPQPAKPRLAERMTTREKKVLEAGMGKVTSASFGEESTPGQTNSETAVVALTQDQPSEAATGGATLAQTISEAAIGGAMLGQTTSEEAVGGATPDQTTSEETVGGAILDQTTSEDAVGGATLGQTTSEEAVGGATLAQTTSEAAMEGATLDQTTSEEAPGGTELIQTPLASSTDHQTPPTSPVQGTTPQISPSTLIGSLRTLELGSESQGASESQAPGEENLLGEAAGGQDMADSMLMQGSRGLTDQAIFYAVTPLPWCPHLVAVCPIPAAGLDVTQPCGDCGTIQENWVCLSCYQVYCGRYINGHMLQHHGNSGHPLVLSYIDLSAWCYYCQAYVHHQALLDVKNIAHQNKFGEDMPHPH
As to the kind of experiment: Inhibition of full-length HDAC6 (unknown origin) by Color-de-Lys assay.

Experiment [13] in a line: Inhibition of mTORC1 (unknown origin). Also noted: species or system Homo sapiens.
Experiment [14] is described as follows: Inhibition of PI3K (unknown origin). Further details: species or system Homo sapiens.
Experiment [15] addresses T1, Phosphatidylinositol 4,5-bisphosphate 3-kinase catalytic subunit delta isoform. As to the kind of experiment: Inhibition of PI3Kdelta (unknown origin).

Histone deacetylase 1, sequence (Q13547 whole entry): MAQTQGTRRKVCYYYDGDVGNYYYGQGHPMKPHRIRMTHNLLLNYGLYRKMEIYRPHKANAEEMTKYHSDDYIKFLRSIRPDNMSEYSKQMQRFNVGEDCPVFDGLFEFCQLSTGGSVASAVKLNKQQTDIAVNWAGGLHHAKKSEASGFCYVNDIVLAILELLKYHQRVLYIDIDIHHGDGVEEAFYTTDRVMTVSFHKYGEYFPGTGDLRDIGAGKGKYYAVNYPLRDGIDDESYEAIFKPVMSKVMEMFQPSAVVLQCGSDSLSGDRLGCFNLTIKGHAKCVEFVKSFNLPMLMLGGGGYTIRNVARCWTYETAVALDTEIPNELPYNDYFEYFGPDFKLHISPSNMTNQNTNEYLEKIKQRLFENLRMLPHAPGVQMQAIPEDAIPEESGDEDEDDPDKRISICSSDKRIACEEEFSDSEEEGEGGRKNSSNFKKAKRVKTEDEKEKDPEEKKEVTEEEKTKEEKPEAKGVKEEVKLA

Consider `COc1ccc(-c2ccc3ncc4c(c3c2)n(-c2ccc(N3CCNCC3)c(C(F)(F)F)c2)c(=O)n4C)cn1` [BGT-226 FREE BASE], for which the 50% inhibitory concentration (IC50) amounted to 38 nM in [1], 7.4 nM in the experiment on SCC-4, 7.4 nM in experiment [2] and 7.4 nM in the experiment on KB.

In experiment [3], `Cc1c(Cc2cccc(N(C)S(=O)(=O)CCCNCCCCCC(=O)N3CCN(c4nc(N5CCOCC5)nc(-n5c(C(F)F)nc6ccccc65)n4)CC3)c2)c(=O)oc2cc(OC(=O)N(C)C)ccc12` yielded an IC50 of 172 nM. Moreover, the inhibition in experiment [4] and in experiment [5] was 35% in each case. Also, the inhibition at 10 µM in the experiment with A549 worked out at 50%. The inhibition at 25 µM with PANC-1 was 50%.

In the case of `CCn1c(=O)c(-c2cc[nH]n2)cc2c(C)nc(N)nc21` [VOXTALISIB], the IC50 is 9 nM in experiment [1] and 43 nM in experiment [6].

Regarding `Cn1cc(CNCC2CCN(c3ncc(C(=O)NO)cn3)CC2)c2ccccc21` [QUISINOSTAT], the IC50 was 19 nM in experiment [7], 54 nM in experiment [8], 39 nM in [9] and 2.8 nM in experiment [10].

Take `COc1ncc(-c2cc(OCCCCCCC(=O)NO)c3nc(N)nc(C)c3c2)cc1F`: the IC50 in experiment [11] worked out at 42 nM; on Histone deacetylase 1 it was 1.4 nM.

Consider `COc1c(OCCCCCC(=O)NO)ccc2c1N=C(NC(=O)c1ccccc1)N1CCN=C21`, for which the half-inhibitory concentration (IC50) in experiment [11] worked out at 50 nM; against Histone deacetylase 1 it was 2.98 nM.

In experiment [12], `O=C(NO)c1ccc(/C=N/NC(=O)c2ccnc(-c3ccccc3)n2)cc1` displayed an IC50 of 18.7 nM.

Turning to `COc1ncc(-c2ccc3nccc(-c4ccnnc4)c3c2)cc1NS(=O)(=O)c1ccc(F)cc1F` [OMIPALISIB], the results for the IC50 in [13] and in [14] were 0.04 nM and 0.3 nM, respectively.

Turning to `COc1ncc(-c2cc(OCCN(C)c3ncc(C(=O)NO)cn3)c3nc(N)nc(C)c3c2)cc1C`, the IC50 was found to be 226 nM in experiment [11] and 1.3 nM against Histone deacetylase 1.

Consider `O=C(NOCCOCCOCCOCCN1CCN(c2nc(N3CCOCC3)nc(-n3c(C(F)F)nc4ccccc43)n2)CC1)c1ccc(F)c(F)c1Nc1ccc(I)cc1F`, for which, in experiment [15], the IC50 amounted to 182 nM.
